How the values were obtained:
Homo sapiens [1] = species on record: Homo sapiens; assay: Compound was testd for inhibition of glucose transport human platelets using [H]-forskolin as radioligand; type: functional, organism-based
Rattus norvegicus [2] = species on record: Rattus norvegicus; assay: Compound was tested for inhibition of glucose transport in adipocytes plasma membrane vesicles using [H]-forskolin as radioligand; type: functional
Homo sapiens [3] = species on record: Homo sapiens; assay: Compound was testd for inhibition of glucose transport human erythrocytes using [H]-forskolin as radioligand; type: functional, organism-based
Rattus norvegicus [4] = species on record: Rattus norvegicus; assay: Compound was tested for inhibition of glucose transport in rat adipocyte; type: functional, organism-based

EC50 (Homo sapiens [1]) [µM] | EC50 (Rattus norvegicus [2]) [µM] | EC50 (Homo sapiens [3]) [µM] | Ki (Rattus norvegicus [4]) [µM] | SMILES
0.24 | 0.24 | 0.24 | – | C=C[C@@]1(C)CC(=O)[C@]2(O)[C@@]3(C)[C@@H](O)CCC(C)(C)[C@@H]3[C@H](O)[C@H](OC(C)=O)[C@@]2(C)O1 [COLFORSIN]
– | – | – | 8500 | CC(=O)O[C@@H]1[C@@H](O)[C@H](O)[C@@H](CO)O[C@@H]1O
– | 7.1 | – | – | C=C[C@@]1(C)CC(=O)[C@]2(O)[C@@]3(C)[C@@H](O)CCC(C)(C)[C@@H]3[C@H](O)[C@H](O)[C@@]2(C)O1
